According to patent US8952059B2, “Acetyl L-carnitine for the preparation of a medicament for the prevention of painful peripheral neuropathy in patients with type 2 diabetes” (Sigma-Tau Industrie Farmaceutiche Riunite S.P.A., priority 2005, dated 2015):
Where two headings read alike, the source gives them in different places.

What was measured:
[1] = tested on: patients with type 2 diabetes (symptoms of painful peripheral neuropathy); assay: Clinical Trial BM 14329: multicentre, randomised, double-blind, placebo-controlled, 52 weeks; type: in vivo, human; settings: for Patients with symptom: Pain / Patients with symptom: Pain, hyperaesthesia, paraesthesia: 3.0 g/day; for Patients with symptom: Pain: n = 217 type 2 diabetes patients without the symptom at basal; for Patients with symptom: Pain, hyperaesthesia, paraesthesia: n = 217 type 2 diabetes patients without the symptoms at basal
Description: (§1) A multicentre, randomised, double-blind, placebo-controlled clinical trial of 52 weeks' duration was conducted in patients with type 2 diabetes suffering from diabetic peripheral neuropathy.
(§2) The patients were treated with acetyl L-carnitine at a dose of 0.5 grams or 1 gram, three times daily, or with placebo for 52 weeks.
(§3) The patients recruited into the trial were patients of male and female sex and were aged from 18 to 70 years, in whom diabetes had been diagnosed more than one year earlier and presenting HbA1c greater than 5.9%.
(§4) After 12, 26 and 52 weeks of treatment, the presence and intensity of pain, paraesthesia and hyperaesthesia, amongst other variables, were assessed as characteristic symptoms of painful peripheral neuropathy in patients who at the time of recruitment presented no such symptoms.

[2] = tested on: diabetic patients suffering from neuropathy; settings: cited from earlier work
[3] = tested on: patients with type 2 diabetes (symptoms of painful peripheral neuropathy); assay: Clinical Trial BM 14330: multicentre, randomised, double-blind, placebo-controlled, same characteristics as Example 1; type: in vivo, human; settings: for Patients with symptom: Pain / Patients with symptom: Pain, hyperaesthesia, paraesthesia: 3.0 g/day; for Patients with symptom: Pain: n = 181 type 2 diabetes patients without the symptom at basal; for Patients with symptom: Pain, hyperaesthesia, paraesthesia: n = 181 type 2 diabetes patients without the symptoms at basal
Description: as §1, §2, §3, §4
A multicentre randomised, double-blind, placebo-controlled clinical trial was conducted with the same characteristics as the clinical trial described in Example 1.

Compound: CC(=O)O[C@H](CC(=O)[O-])C[N+](C)(C)C [Acetyl L-carnitine, acetyl L-carnitine]
- Patients with symptom: Pain ([1]; 12 weeks): 17.1%
- Patients with symptom: Pain, hyperaesthesia, paraesthesia ([1]; 12 weeks): 35.5%
- Patients with symptom: Pain ([1]; 26 weeks): 20.3%
- Patients with symptom: Pain, hyperaesthesia, paraesthesia ([1]; 26 weeks): 38.6%
- Patients with symptom: Pain ([1]; 52 weeks): 29.5%
- Patients with symptom: Pain, hyperaesthesia, paraesthesia ([1]; 52 weeks): 47.5%
- Prevention of symptoms typical of diabetic painful peripheral neuropathy (pain, hyperaesthesia, paraesthesia) ([1]; patients without such symptoms at entry, only in type 2 diabetes and at the higher dose): capable not only of curing but also of preventing the symptoms
- Ability to prevent the onset of symptoms associated with diabetic painful peripheral neuropathy ([1]; summary of Tables 1-3, 3 grams/day): statistically significant ability to prevent the onset of symptoms
- Curative effect on symptoms of diabetic peripheral neuropathy already present at the start of the trial ([1]; treatment for 26 or 52 weeks, effect better only in patients with type 2 diabetes): capable of curing the symptoms of diabetic peripheral neuropathy
- Nerve conduction velocity ([2]; diabetic patients suffering from neuropathy, Drugs 1997 September: 54 (3) 414-421): improves nerve conduction velocity
- Nerve conduction velocity ([2]; diabetic patients suffering from polyneuropathy, Journal of the Neurological Sciences, 1997, Suppl. to Vol 150): improves nerve conduction velocity
- Relief of pain symptoms and regeneration of nerve fibres ([2]; patients suffering from stabilised diabetic neuropathy, Diabetes Care, 2005, 28(1): 89-94): useful for relieving the pain symptoms and for regenerating nerve fibres
- Patients with symptom: Pain ([3]; 12 weeks): 27.6%
- Patients with symptom: Pain, hyperaesthesia, paraesthesia ([3]; 12 weeks): 42.5%
- Patients with symptom: Pain ([3]; 52 weeks): 35.9%
- Patients with symptom: Pain, hyperaesthesia, paraesthesia ([3]; 52 weeks): 48.1%
- Patients with symptom: Pain ([3]; Table 5, head prints 12 weeks): 28.7%
- Patients with symptom: Pain, hyperaesthesia, paraesthesia ([3]; Table 5, head prints 12 weeks): 43.1%
- Ability to prevent the onset of symptoms associated with diabetic painful peripheral neuropathy ([3]; summary of Tables 4-6, 3 grams/day): statistically significant ability to prevent the onset of symptoms
